One data set concerns sciatic nerve. Nature of the data set: transmission electron microscopy of sciatic nerve (unmyelinated neurons, mitochondria). The class given is in vivo, mice (C57BL/6J). The note with it: for median area of mitochondria in unmyelinated neuron: sciatic nerve at 4 weeks, control 0.036. On the procedure: Paclitaxel (Sigma-Aldrich) was dissolved with ethanol and cremophor (1:1) and diluted with normal saline (1:4). Peripheral neuropathy was induced in mice by intraperitoneal (i.p.) administration of 4 mg/kg paclitaxel every other day for a total of 4 injections (cumulative dose of 16 mg/kg), according to a previously described protocol. A stable, crystallized form of GSSSG was produced and provided by Kyowa Hakko Bio CO., LTD. GSSSG was pulverized and mixed in 0.5% methylcellulose. To evaluate the therapeutic effects of GSSSG in a model of PIPN, mice were randomly divided into three groups of 6. Mice were treated with: 1) paclitaxel alone; 2) paclitaxel and GSSSG; 3) or vehicle alone (control). Mice in groups 1 and 2 received paclitaxel as described above, while mice in the control group received the same volume of vehicle. The first dose of GSSSG was given within 1 hour after the first PTX injection. Treatment was administered as oral gavage for 28 days with GSSSG at 50 mg/kg/day (group 2) or 0.5% methylcellulose (groups 1 and 3). The dose of GSSSG was determined based on pilot studies. To determine the effect of GSSSG on the development of PIPN, behavioral tests to assess allodynia and hyperalgesia were conducted on all mice on days-1 (baseline), 7, 14, 21, and 28 after paclitaxel administration. Behavioral tests were performed by an investigator who was blinded to the treatment groups, as described in the next section. To evaluate unmyelinated neurons and mitochondria, we examined neurons in sciatic nerve by a transmission electron microscope. Resin-embedded nerve blocks using the same method above were sectioned at 50 nm by an ultramicrotome. Sections were examined with an FEI Morgagni transmission electron microscope. Low (×2200) and high (×11000) magnification of images were captured with an AMT 2K charge-coupled device camera (Advanced Microscopy Techniques, Woburn, MA, USA). Unmyelinated neurons were quantified in 9 low magnified images per group (3 mice per group). The percentage of unmyelinated neurons was calculated by dividing unmyelinated neurons by the total number of neurons. The cross-sectional area of mitochondria (μm^2) in unmyelinated neurons was quantified in 18 to 20 high magnified images per group (3 mice per group). In total, 80 to 100 mitochondrion per group were evaluated. Quantification was conducted by a blinded examiner, and the images were evaluated by a pathologist (A S-R) blinded to the identity of samples.

Data set [1] relates to MDA-MB-231 human breast cancer cells. The data set is described as follows: MDA-MB-231 live cell count by trypan blue exclusion assay. The class given is cell-based. The note with it: 24 hours. On the procedure: To examine whether co-administration of GSSSG affects anti-tumor effects of paclitaxel, we conducted experiments using MDA-MB-231, a human breast cancer cell line (HTB-26, ATCC). Cells were cultured in the medium of 90% RPMI1640 (Corning, Cat No. 10-040-CV), 10% FBS, and 1% penicillin/streptomycin. After being seeded into a 96-well plate at the density of 20,000/well and cultured overnight, they were exposed to different concentrations of paclitaxel (0.125 μM, 0.25 μM, 0.5 μM, 1 μM, and 2 μM) and incubated for 24 hours. Cell viability was evaluated by LDH Cytotoxicity Detection Kit (Roche, Cat No. 11644793001). Briefly, a plate was centrifuged at 250×g for 10 minutes. […] After mixing with assay enzyme for 30 minutes at 25° C., absorbance was measured at wavelength 492 nm to determine cell viability. Inhibitory effects of paclitaxel were calculated by half-maximal inhibitory concentration (IC50). […] After being stripped by 0.25% trypsin, live cells were counted under 0.04% trypan blue. Five wells were evaluated per group.
Sample sizes for behavior test were chosen based on a previous study. All values are expressed as mean±standard deviation (SD). The behavior test results were analyzed in the mixed effect model because the behavior was measured repeatedly over five times from the same mice, and individual differences at baseline were confirmed in the preliminary study. […]

[2] abbreviates: paclitaxel alone, 4 weeks, vs control mice.

Results on two molecules are retold here after patent publication US20260097091A1, “ADMINISTRATION OF GLUTATHIONE TRISULFIDE TO AMELIORATE PERIPHERAL NEUROPATHY” (The General Hospital Corporation, priority 2022, published 2026).

On to `N[C@@H](CCC(=O)N[C@@H](CSSSC[C@H](NC(=O)CC[C@H](N)C(=O)O)C(=O)NCC(=O)O)C(=O)NCC(=O)O)C(=O)O` [GSSSG, glutathione trisulfide], for which the “mitochondrial swelling in axons of unmyelinated neurons” value in the data set with sciatic nerve (paclitaxel and GSSSG 50 mg/kg/day oral, 4 weeks) is “Prevented Mitochondrial Swelling”. In the data set with sciatic nerve (paclitaxel and GSSSG 50 mg/kg/day oral, 4 weeks, vs paclitaxel alone), the “ratio of unmyelinated neurons to total neurons in sciatic nerve” value is reported as “larger ratio of unmyelinated neurons”. Moreover, in the data set with sciatic nerve (paclitaxel with GSSSG 50 mg/kg/day oral), the “median area of mitochondria in unmyelinated neuron” value amounted to 0.041 μm^2. Also, the “number of alive MDA-MB-231 cells” value in data set [1] (2 μM paclitaxel + 10 μM GSSSG) is recorded as 48.3 % of control cells.

As to `CC(=O)O[C@H]1C(=O)[C@@]2(C)[C@H]([C@H](OC(=O)c3ccccc3)[C@]3(O)C[C@H](OC(=O)[C@H](O)[C@@H](NC(=O)c4ccccc4)c4ccccc4)C(C)=C1C3(C)C)[C@]1(OC(C)=O)CO[C@@H]1C[C@@H]2O` [paclitaxel, Paclitaxel, reference compound], in the data set with sciatic nerve (setting [2]), the “cross-sectional area of mitochondria in unmyelinated sciatic neurons” value is listed as “significantly larger than those in control mice” and the “ratio of unmyelinated neurons to total neurons in sciatic nerve” value is reported as “tended to decrease unmyelinated neurons compared to control mice”. The “median area of mitochondria in unmyelinated neuron” value in the data set with sciatic nerve (paclitaxel alone) was 0.057 μm^2. Besides, the “number of alive MDA-MB-231 cells” value in data set [1] (2 μM paclitaxel alone) is listed as 44.9 % of control cells.
